The record followed here is patent US8933107B2, “Pesticide thiazolyloxy substituted phenylamidine derivatives” (Bayer Cropscience AG, priority 2005, dated 2015).

In general, chromatographic logP refers to lipophilicity estimated from chromatographic retention. A lower chromatographic logP goes with a more hydrophilic compound.

The subject of data set [1] is Puccinia recondita f. Sp. tritici. The data set is described as follows: In vivo preventive test on Puccinia recondita f. Sp. tritici (wheat brown rust). Conditions: topical, 240 h, 1000 ppm of active ingredient, evaluated 10 days after inoculation, read-out: efficacy.
In data set [2] the test system is Erysiphe graminis f. sp. hordei. The data set is described as follows: In vivo preventive test on Erysiphe gramini (powdery mildew on barley). Conditions: Blumeria graminis, 168 h, 1000 ppm of active ingredient, evaluated 7 days after inoculation, read-out: efficacy.
Data set [3] deals with Alternaria solani. The data set is described as follows: In vivo protective test on Alternaria solani (leaf spot of tomato). Conditions: 168 h, 500 ppm of active ingredient, evaluated 7 days after inoculation, read-out: efficacy.
In data set [4] the test system is Podosphaera leucotricha. The data set is described as follows: In vivo protective test on Podosphaera leucotricha (apples). Conditions: topical, 240 h, 100 ppm of active ingredient, evaluated 10 days after inoculation, read-out: efficacy.
In data set [5] the test system is Sphaerotheca fuliginea. The data set is described as follows: In vivo protective test on Sphaerotheca fuliginea (cucumbers). The conditions noted are these: Podosphaera fuliginea, 168 h, 100 ppm of active ingredient, evaluated 7 days after inoculation, read-out: efficacy.
The nature of data set [6]: physchem. The conditions noted are these: reversed-phase HPLC column (C 18).

`CCN(C)/C=N/c1cc(C)c(Oc2nc(Cl)c(Cl)s2)cc1C` [Compound 1.1, N′-{4-[(4,5-dichloro-1,3-thiazol-2-yl)oxy]-2,5-dimethylphenyl}-N-ethyl-N-methylimidoformamide]: the pest or weed control at 1000 ppm in data set [1] and in data set [2] was ≥ 70% in each case. The pest or weed control at 500 ppm in data set [3] is ≥ 70%. Further, the pest or weed control at 100 ppm in data set [4] and in data set [5] was ≥ 70% throughout. The chromatographic logP in data set [6] was 2.12; in data set [6] (pH 2.3) it was 2.04.

In the case of `CCN(C)/C=N/c1cc(C)c(Oc2nc(Cl)c(Br)s2)cc1C` [Compound 1.6], the pest or weed control at 1000 ppm in data set [1] and in data set [2] was ≥ 70% each time. Also, the pest or weed control at 100 ppm in data set [4] and in data set [5] was ≥ 70% each time. Further, the chromatographic logP in data set [6] came to 2.

With `Cc1cc(Oc2nc(C(F)(F)F)c(Cl)s2)c(C)cc1/N=C/N(C)C(C)C` [Compound 1.10], the pest or weed control at 1000 ppm in data set [1] and in data set [2] was ≥ 70% each time. Moreover, the pest or weed control at 100 ppm in data set [4] and in data set [5] was ≥ 70% in each case. This molecule also had a chromatographic logP in data set [6] of 2.29.

Turning to `Cc1cc(Oc2nc(C)c(Cl)s2)c(C)cc1/N=C/N(C)C(C)C` [Compound 1.13], the pest or weed control at 1000 ppm in data set [1] and in data set [2] was ≥ 70% throughout. In addition, the pest or weed control at 500 ppm in data set [3] was ≥ 70%. Also, the chromatographic logP in data set [6] was 2.14.

Take `Cc1cc(Oc2nc(Cl)cs2)c(C)cc1/N=C/N(C)C(C)C` [Compound 1.14]: the pest or weed control at 500 ppm in data set [3] was ≥ 70%. In data set [6], this molecule displayed a chromatographic logP of 1.7.

In the case of `CCN(C)/C=N/c1cc(C)c(Oc2nc(Cl)c(C)s2)cc1C` [Compound 1.17], the pest or weed control at 1000 ppm in data set [1] and in data set [2] was ≥ 70% throughout. Further, the pest or weed control at 500 ppm in data set [3] was ≥ 70%. Further, in data set [4], the pest or weed control at 100 ppm was ≥ 70%. The chromatographic logP in data set [6] is 1.8.

For `CCN(C)/C=N/c1cc(C)c(Oc2nc(Cl)cs2)cc1C` [Compound 1.18], the pest or weed control at 1000 ppm in data set [1] and in data set [2] was ≥ 70% each time. The pest or weed control at 100 ppm in data set [4] and in data set [5] was ≥ 70% each time. Further, the chromatographic logP in data set [6] was 1.6.

In the case of `CCN(C)/C=N/c1cc(C)c(Oc2nc(C(C)C)c(Cl)s2)cc1C` [Compound 1.20], the pest or weed control at 1000 ppm in data set [1] and in data set [2] was ≥ 70% each time. Further, the pest or weed control at 500 ppm in data set [3] was ≥ 70%. Besides, the chromatographic logP in data set [6] was 2.52.

`CCN(C)/C=N/c1cc(C)c(Oc2nc(C)c(C(C)=O)s2)cc1C` [Compound 1.27]: in data set [3], the pest or weed control at 500 ppm is ≥ 70%. Besides, the chromatographic logP in data set [6] was 1.5.

Take `Cc1cc(Oc2nc(Cl)c(Cl)s2)ccc1/N=C/N(C)C(C)C` [Compound 1.28]: the pest or weed control at 1000 ppm in data set [1] and in data set [2] was ≥ 70% each time. The chromatographic logP in data set [6] turned out to be 2.09.

`Cc1cc(Oc2nc(Cl)c(C)s2)c(C)cc1/N=C/N(C)C` [Compound 1.31] registered a chromatographic logP in data set [6] of 1.69.

`CCN(C)/C=N/c1ccc(Oc2nc(C)c(C)s2)cc1C` [Compound 1.33] returned a chromatographic logP in data set [6] of 1.65.

In the case of `Cc1cc(Oc2nc(C)c(C)s2)ccc1/N=C/N(C)C(C)C` [Compound 1.34], the chromatographic logP in data set [6] is 1.66.

`CCCc1sc(Oc2cc(C)c(/N=C/N(C)C(C)C)cc2C)nc1C` [Compound 1.35]: the chromatographic logP in data set [6] came to 2.29.

`CCCc1sc(Oc2cc(C)c(/N=C/N(C)CC)cc2C)nc1C` [Compound 1.36] yielded a chromatographic logP in data set [6] of 2.22.

For `Cc1cc(Oc2nc(C)c(C)s2)c(C)cc1/N=C/N(C)C(C)C` [Compound 1.37], the chromatographic logP in data set [6] stood at 1.98.

The molecule `CCN(C)/C=N/c1cc(C)c(Oc2nc(C)c(C)s2)cc1C` [Compound 1.38] showed a chromatographic logP in data set [6] of 1.87.

`CCN(C)/C=N/c1ccc(Oc2nc(Cl)c(Cl)s2)cc1C` [Compound 1.39] yielded a chromatographic logP in data set [6] of 1.99.

As for `CCN(C)/C=N/c1cc(C)c(Oc2nc(C=O)c(Cl)s2)cc1C` [Compound 1.42, N′-{4-[(5-chloro-4-formyl-1,3-thiazol-2-yl)oxy]-2,5-dimethylphenyl}-N-ethyl-N-methylimidoformamide], the chromatographic logP was found to be 1.46 in data set [6] and 1.51 in data set [6] (pH 2.3).

As for `CCN(C)C=Nc1cc(C)c(Oc2nc(C=NOC(C)(C)C)c(Cl)s2)cc1C` [Compound 1.44, N′-[4-({4-[(tert-butoxyimino)methyl]-5-chloro-1,3-thiazol-2-yl}oxy)-2,5-dimethylphenyl]-N-ethyl-N-methylimidoformamide], the chromatographic logP in data set [6] and in data set [6] (pH 2.3) was 2.65 each time.

Regarding `CCN(C)/C=N/c1cc(C)c(Oc2nc(-c3ccccc3)cs2)cc1C` [Compound 1.60], the chromatographic logP in data set [6] was 2.18.

For the molecule `Cc1cc(Oc2nc(-c3ccccc3)cs2)c(C)cc1/N=C/N(C)C(C)C` [Compound 1.61], the chromatographic logP in data set [6] came to 2.25.

`CCN(C)/C=N/c1cc(C)c(Oc2nc(Cl)c(C=O)s2)cc1C` [Compound 1.62] displayed a chromatographic logP in data set [6] of 1.68.

Take `Cc1cc(Oc2nc(C(C)(C)C)c(Cl)s2)c(C)cc1/N=C/N(C)C(C)C` [Compound 1.64]: in data set [3], the pest or weed control at 500 ppm was ≥ 70%. This molecule also registered a chromatographic logP in data set [6] of 2.79.

On to `CCN(C)/C=N/c1cc(C)c(Oc2nc(C(C)(C)C)c(Br)s2)cc1C` [Compound 1.71], for which the pest or weed control at 1000 ppm in data set [1] is ≥ 70%. Further, in data set [3], the pest or weed control at 500 ppm was ≥ 70%. In addition, the pest or weed control at 100 ppm in data set [4] is ≥ 70%. The chromatographic logP in data set [6] turned out to be 2.78.

For `CCN(C)/C=N/c1cc(C)c(Oc2nc(C#N)c(Cl)s2)cc1C` [Compound 1.72], the pest or weed control at 1000 ppm in data set [1] was ≥ 70%. For the same molecule, the pest or weed control at 100 ppm in data set [4] was ≥ 70%. Further, in data set [6], the chromatographic logP was found to be 1.74.

As for `CCN(C)/C=N/c1cc(C)c(Oc2nc(Cl)c(C(C)(C)C)s2)cc1C` [Compound 1.73], the pest or weed control at 1000 ppm in data set [1] is ≥ 70%. Further, the chromatographic logP in data set [6] was 2.87.

Take `CCN(C)/C=N/c1cc(C)c(Oc2ncc(C(C)(C)C)s2)cc1C` [Compound 1.74]: the pest or weed control at 1000 ppm in data set [1] was ≥ 70%. In addition, in data set [3], the pest or weed control at 500 ppm is ≥ 70%. Also, the pest or weed control at 100 ppm in data set [4] was ≥ 70%. The molecule also returned a chromatographic logP in data set [6] of 2.18.

Consider `CCN(C)/C=N/c1cc(C)c(Oc2nc(C(C)(C)C)cs2)cc1C` [Compound 1.75], for which the pest or weed control at 1000 ppm in data set [1] is ≥ 70%. The pest or weed control at 100 ppm in data set [4] was ≥ 70%. Further, the chromatographic logP in data set [6] worked out at 2.26.

Regarding `Cc1cc(Oc2nc(C(C)C)ns2)ccc1/N=C/N(C)C(C)C` [Compound 2.1], the chromatographic logP in data set [6] was 1.77.

With `CCN(C)/C=N/c1ccc(Oc2nc(C(C)C)ns2)cc1C` [Compound 2.2], the pest or weed control at 1000 ppm in data set [1] and in data set [2] was ≥ 70% each time. In addition, the chromatographic logP in data set [6] is 1.57.

Take `Cc1cc(Oc2nc(C(C)C)ns2)c(C)cc1/N=C/N(C)C(C)C` [Compound 2.4]: the pest or weed control at 1000 ppm in data set [1] and in data set [2] was ≥ 70% each time. In data set [6], the chromatographic logP was 1.89.

Molecule `CCN(C)/C=N/c1cc(C)c(Oc2nc(Cl)ns2)cc1C` [Compound 2.5] yielded a chromatographic logP in data set [6] of 1.56.

As to `Cc1cc(Oc2nc(Cl)ns2)c(C)cc1/N=C/N(C)C(C)C` [Compound 2.6], the chromatographic logP in data set [6] is 1.67.

Turning to `CCN(C)/C=N/c1ccc(Oc2nc(C(C)(C)C)ns2)cc1C` [Compound 2.7], in data set [1], the pest or weed control at 1000 ppm is ≥ 70%. Also, in data set [3], the pest or weed control at 500 ppm is ≥ 70%. Moreover, the pest or weed control at 100 ppm in data set [4] is ≥ 70%. Also, in data set [6], the chromatographic logP turned out to be 2.04.

For the molecule `Cc1cc(Oc2nnc(C(F)(F)F)s2)c(C)cc1/N=C/N(C)C(C)C` [Compound 3.1], the pest or weed control at 1000 ppm in data set [1] and in data set [2] was ≥ 70% throughout. In addition, the chromatographic logP in data set [6] was found to be 1.84.

Turning to `CCN(C)/C=N/c1cc(C)c(Oc2nnc(C(F)(F)F)s2)cc1C` [Compound 3.2], the pest or weed control at 1000 ppm in data set [1] and in data set [2] was ≥ 70% each time. Besides, the pest or weed control at 500 ppm in data set [3] was ≥ 70%. This molecule also returned a chromatographic logP in data set [6] of 1.78.

In turn, `CCN(C)/C=N/c1cc(C)c(Oc2nnc(-c3ccccc3)s2)cc1C` [Compound 3.3] registered a chromatographic logP in data set [6] of 1.93.

In turn, `Cc1cc(Oc2nnc(-c3ccccc3)s2)c(C)cc1/N=C/N(C)C(C)C` [Compound 3.6] displayed a chromatographic logP in data set [6] of 2.

`CSc1nnc(Oc2cc(C)c(/N=C/N(C)C(C)C)cc2C)s1` [Compound 3.18]: the chromatographic logP in data set [6] worked out at 1.82.

In data set [6], `Cc1cc(Oc2nnc(C(C)C)s2)c(C)cc1/N=C/N(C)C(C)C` [Compound 3.19] returned a chromatographic logP of 1.69.

With `CCN(C)/C=N/c1cc(C)c(Oc2nnc(SC)s2)cc1C` [Compound 3.21], the pest or weed control at 500 ppm in data set [3] is ≥ 70%. Besides, the chromatographic logP in data set [6] amounted to 1.69.

In turn, `CCN(C)/C=N/c1cc(C)c(Oc2nnc(C(C)C)s2)cc1C` [Compound 3.22] displayed a chromatographic logP in data set [6] of 1.61.

`Cc1cc(Oc2nc(Cl)c(Cl)s2)c(C)cc1N` [II-1, 4-[(4,5-dichloro-1,3-thiazol-2-yl)oxy]-2,5-dimethylaniline]: in data set [6] (pH 2.3), the chromatographic logP was 3.4.

Take `CCN(C)/C=N/c1cc(C)c(O)cc1C` [IX-a, N-ethyl-N′-(4-hydroxy-2,5-dimethylphenyl)-N-methylimidoformamide]: in data set [6] (pH 2.3), the chromatographic logP came to 0.41.
